Entries after “also recorded” stand apart in the source; their conditions may differ.
Columns and labels:
[1] = test system: LNCaP cells; assay type: cell-based; set-up: cell death: dose or concentration left out as unconfirmed
Procedure: FIG. 12B: LNCaP cells were grown without androgen for 2 or 4 days in the presence of increasing concentration of Peptide A-8R [SEQ ID NO: 1] (upper left), Peptide B-8R [SEQ ID NO: 2] (upper right), Peptide C-8R [SEQ ID NO: 3] (lower left), or Peptide D-8R [SEQ ID NO: 4] (lower right). The MTT reagent was used to measure cell density.
FIG. 13A: LNCaP cells were grown with (Right) or without (Left) 1 nM androgen ([…]) for 3 or 6 days in the presence of increasing concentration of Peptide A-8R [SEQ ID NO: 1] or vehicle (70% DMSO). The MTT reagent was used to measure cell density.
FIG. 13B: LNCaP cells were grown with (Right) or without (Left) 1 nM androgen (R1881) for 3 or 6 days in the presence of increasing concentration of Peptide C-8R [SEQ ID NO: 3] or vehicle and then cell density was measured.
FIG. 14A: LNCaP cells were grown with (Right) or without (Left) 1 nM R1881 for 3 or 6 days in the presence of increasing concentration of Peptide A or vehicle and then cell density was measured.
FIG. 14B: LNCaP cells were grown with (Right) or without (Left) 1 nM R1881 for 3 or 6 days in the presence of increasing concentration of Peptide A-8R [SEQ ID NO: 1] or vehicle and then cell density was measured.
FIG. 15A: LNCaP cells were grown for 1-8 hrs in the presence of 10 μM Peptide A-8R [SEQ ID NO: 1] or vehicle and then cell density was measured.
FIG. 19C: LNCaP cells were grown with for 12 or 48 hrs in the presence of increasing concentration of Peptide A-8R [SEQ ID NO: 1] (Left) or PeptideA-8R-Biotin [SEQ ID NO: 1] (Right) and then cell density was measured.
Each peptide contained 8 arginines at the C-terminus, a sequence which is known to mediate plasma membrane translocation and cellular internalization.
(§1) To measure how rapid the cytotoxic effect of Peptide A-8R [SEQ ID NO: 1] occurs, LNCaP cells were treated with 10 μM peptide and incubated for 1-8 hrs. […] Using the same conditions, C81 cells were used to study the peptide effect on hormone-refractory prostate cancer cells.

[2] = test system: C81 (androgen-refractory LNCaP) cells; assay: C81 cell density with peptide; assay type: cell-based; details: 10 μM peptide; 1-8 hrs
Procedure: FIG. 15B: C81 (androgen-refractory LNCaP) cells were grown for 1-8 hrs in the presence of 10 μM Peptide A-8R [SEQ ID NO: 1] or vehicle and then cell density was measured.
as §1

[3] = test system: CWR22-Rv1 (androgen-refractory) cells; assay: CWR22-Rv1 cell density with peptide; assay type: cell-based; details: 10 μM peptide; 1-8 hrs
Procedure: FIG. 15C: CWR22-Rv1 (androgen-refractory) cells were grown for 1-8 hrs in the presence of 10 μM Peptide A-8R [SEQ ID NO: 1] or vehicle and then cell density was measured.
as §1

[4] = test system: Cos monkey kidney cancer cells; assay: Cos cell density with peptide; assay type: cell-based; details: even at 100 μM; 2 or 4 days; no endogenous sGCα1
Procedure: FIG. 17B: Cos monkey kidney cancer cells were grown for 2 or 4 days in the presence of increasing concentration of Peptide A-8R [SEQ ID NO: 1] or vehicle and then cell density was measured.

[5] = test system: C81 xenograft tumors; assay: C81 xenograft tumors in mice, intratumoral injection; assay type: in vivo
Procedure: FIGS. 28A-C: Peptide A-8R [SEQ ID NO: 1] inhibits the growth of C81 prostate xenograft tumors. (A) C81 (hormone-independent LNCaP) xenograft tumors were grown in nude mice to a size of about 200 cubic mm and then treated every other day with five intratumoral injections of either Peptide A-8R [SEQ ID NO: 1] ([…] of animal) or vehicle (DMSO) for seven days, after which the tumors were left untreated and allowed to grow for an additional 3 weeks before the tumors were excised. Each point represents the average tumor size of three animals plus or minus the standard deviations. The arrow represents the last treatment of Peptide A-8R [SEQ ID NO: 1] or vehicle. There is a statistical significance (P<0.0004) of Peptide A activity, relative to vehicle, for each treatment day. […] Bar graphs represent averages of each set of three tumors plus standard deviations. Asterisks indicate statistical significance (P<0.02). (C) Image showing the strong anti-tumor effect of Peptide A-8R [SEQ ID NO: 1], as compared to vehicle control, in one animal.
This experiment was then repeated using hormone-refractory C81 cells. 2×10^6 C81 cells in 50 μL of growth medium was mixed with 50 μL Matrigel (BD Biosciences) and injected into both flanks of 4-6-week old SCID male mice. When tumor sizes reached 200 mm^3, 50 μL of Peptide A-8R (40 mg Peptide A-8R/kg of animal) [“A-8R” disclosed as SEQ ID NO: 1] or vehicle (DMSO) was directly injected into the tumors every other day. Injections were stopped after 5 times and tumors were measured every 3 days. Mice were euthanized after 3 weeks and tumors were excised. All procedures were approved by the University of Toledo, Division of Lab Animal Recourses (DLAR). Protein extracts were prepared by boiling the tumor tissue in 3×SDS buffer, and evaluated by SDS-PAGE gel. The procedure was carried out in strict accordance with the recommendations in the Guide for the Care and Use of Laboratory Animals of the National Institutes of Health. […] During the experiments, all animals were monitored daily for morbidity and all efforts were made to minimize suffering. […]

[6] = test system: Capan-2 pancreatic cancer cells; assay: Capan-2 cell density with peptide; assay type: cell-based; details: increasing concentration; 3 or 5 days
Procedure: FIG. 21B: Capan-2 pancreatic cancer cells were grown for 3 or 5 days in the presence of increasing concentration of Peptide A-8R [SEQ ID NO: 1] or vehicle and then cell density was measured.
To determine if Peptide A-8R [SEQ ID NO: 1] can be cytotoxic to other cancer cells, a pancreatic cancer cell line, Capan-2, was also tested.

Question: With “Ac-TFCKAFPFHIIRRRRRRRR-OH [Peptide A-8R]” as the substance, how does the “cell number, time course” value ([1]; LNCaP, 10 μM peptide, 1-8 hrs) read?
Answer: The value was “steep decline in cell number with one hour”.

Question: And the cell death ([1]; LNCaP, peptide treatment, by day 6)?
Answer: The cell death was 100%.

Question: And the “effect on LNCaP cell growth / cytotoxicity (in words)” value ([1]; increasing concentration of peptide, days, with or without 1 nM R1881)?
Answer: Its value is “highly cytotoxic; also recorded: induced LNCaP cell death in both the absence and presence of androgens”.

Question: And the “killing of C81 cells” value [2]?
Answer: The value was “very effective at killing”.

Question: What about the “killing of CWR22-Rv1 cells” value [3] of the same substance?
Answer: Its value is “able to kill”.

Question: What about the “effect on Cos cells” value [4] of the same substance?
Answer: The value was “little to no effect”.

Question: And the “tumor growth during treatment” value ([5]; 40 mg/kg intratumoral every other day, five injections)?
Answer: Its value is “stopped tumor growth and actually caused some tumor regression”.

Question: And the “tumor size versus vehicle-treated tumor in the same mouse” value ([5]; one mouse having two tumors)?
Answer: Its value is “markedly smaller”.

Question: And the “tumor growth after peptide treatment was stopped” value ([5]; three weeks after treatment was stopped)?
Answer: The value was “did not grow at all”.

Question: What about the “cytotoxicity to Capan-2 cells” value [6] of the same substance?
Answer: Its value is “strongly cytotoxic”.

— patent US9546196B2, “Compositions and methods of treatment of cancers” (The University of Toledo, priority 2009, dated 2017)
